Measurements taken from patent publication US20060014729A1, “Compounds and their preparation for the treatment of Alzheimer's disease by inhibiting beta-amyloid peptide production” (priority 2004, published 2006).

Key:
Aβ42 = settings: cited from earlier work
secreted Aβ40 and Aβ42 = test: Aβ ELISA in CHO-APP cells treated with compounds; type: cell-based, hamster (CHO) cells expressing human APP; settings: 50 μg/ml, 6 and 24 hours, normalized to full-length APP and vehicle-treated cells
Protocol: CHO cells stably transfected with human APP751 (CHO-APP cells) were treated with compounds as described above. The compounds were used at 50 μg/ml for 6 and 24 hours. Levels of secreted Aβ40 and Aβ42 were determined using a commercial Aβ ELISA kit (Biosource) and normalized to cell-associated full-length APP. The relative levels of Aβ40 (white bar) and Aβ42 (black bar) were normalized to values obtained from vehicle-treated cells and are shown as % to control. […] (D10=20(S), 24(R)-epoxydammarane-3β,25-diol; D2=Dammar-24-ene-3β,20(S)-diol; D3=reduction mixture of dammar resin by NaBH4; D5=Dammar resin mixture; D6=dipterocarpol; D7=t-butylhydroperoxide-oxidized products of D3. D8=3-acetyl Dammar-24-ene-3A, 20(S)-diol; D9=3-acetyl 20(S),24(R)-epoxydammarane-3β,25-diol; D10=20(S),24(R)-epoxydammarane-3×, 25-diol; D11=Dammar-24-ene-3×, 20(S)-diol; D12=tetraacetyl 20-hydroxydammar-24-ene-3-yl-glucopyranoside; D13=20-hydroxydammar-24-ene-3-yl-glucopyranoside; D15=20(S), 24(R)-epoxydammarane-3-oxo, 25-ol.

γ-secretase complex = settings: partially purified γ-secretase complex; cited from earlier work

Q: Which “production of Aβ42 in mammalian cells” value (Aβ42; mammalian cells) does the source give for `CC(C)=CCC[C@](C)(O)[C@H]1CC[C@]2(C)[C@@H]1[C@H](O)C[C@@H]1[C@@]3(C)CC[C@H](O[C@@H]4O[C@H](CO)[C@@H](O)[C@H](O)[C@H]4O[C@@H]4O[C@H](CO)[C@@H](O)[C@H](O)[C@H]4O)C(C)(C)[C@@H]3CC[C@]12C` [(20S)Rg3] here?
A: The value was “lower the production of Aβ42 in mammalian cells”.

Q: For `CC(C)(O)[C@H]1CC[C@@](C)([C@H]2CC[C@]3(C)[C@@H]2CC[C@@H]2[C@@]4(C)CC[C@H](O)C(C)(C)[C@@H]4CC[C@]23C)O1` [Compound D1, 20(S), 24(R)-epoxydammarane-3β, 25-diol], which “selective potentiation of Aβ42 production” value (from here on “selective potentiation”) (secreted Aβ40 and Aβ42) is on record?
A: Its value is “selectively potentiated Aβ42 production”.

Q: For `CC(C)=CCCC(C)(O)C1CC[C@]2(C)C1CCC1[C@@]3(C)CC[C@H](O)C(C)(C)C3CC[C@]12C` (stereo partly drawn) [Compound D2, Dammar-24-ene-3β,20(S)-diol], which “selective potentiation” value (secreted Aβ40 and Aβ42) is on record?
A: The value was “selectively potentiated Aβ42 production”.

Q: With `CC(C)=CCC[C@](C)(O)[C@H]1CC[C@]2(C)[C@@H]1CC[C@@H]1[C@@]3(C)CCC(=O)C(C)(C)[C@@H]3CC[C@]12C` [Compound D6, dipterocarpol] as the compound, how does the “Aβ-lowering activity (levels of secreted Aβ40 and Aβ42, % to control)” value (secreted Aβ40 and Aβ42) read?
A: Its value is “exhibited Aβ-lowering activities”.

Q: With `CC(=O)O[C@H]1CC[C@]2(C)[C@H]3CC[C@@H]4[C@@H]([C@]5(C)CC[C@H](C(C)(C)O)O5)CC[C@@]4(C)[C@]3(C)CC[C@H]2C1(C)C` [Compound D9, 3-acetyl 20(S),24(R)-epoxydammarane-3β,25-diol] as the compound, how does the “selective potentiation” value (secreted Aβ40 and Aβ42) read?
A: Its value is “selectively potentiated Aβ42 production”.

Q: Which “Aβ-lowering activity (levels of secreted Aβ40 and Aβ42, % to control)” value (secreted Aβ40 and Aβ42) does the source give for `CC(C)(O)[C@H]1CC[C@@](C)([C@H]2CC[C@]3(C)[C@@H]2CC[C@@H]2[C@@]4(C)CC[C@@H](O)C(C)(C)[C@@H]4CC[C@]23C)O1` [Compound D10, 20(S),24(R)-epoxydammarane-3 cc, 25-diol] here?
A: Its value is “exhibited Aβ-lowering activities”.

Q: Which “Aβ-lowering activity (levels of secreted Aβ40 and Aβ42, % to control)” value (secreted Aβ40 and Aβ42) does the source give for `CC(C)=CCCC(C)(O)C1CC[C@]2(C)C1CCC1[C@@]3(C)CC[C@@H](O)C(C)(C)C3CC[C@]12C` (stereo partly drawn) [Compound D11, Dammar-24-ene-3α,20(S)-diol] here?
A: Its value is “exhibited Aβ-lowering activities”.

Q: For `CC(C)(O)C1CCC(C)(C2CCC3(C)C2CCC2C4(C)CCC(=O)C(C)(C)C4CCC23C)O1` [Compound D15, 20(S), 24(R)-epoxydammarane-3-oxo, 25-ol], which “Aβ-lowering activity (levels of secreted Aβ40 and Aβ42, % to control)” value (secreted Aβ40 and Aβ42) is on record?
A: Its value is “exhibited Aβ-lowering activities”.

Q: Which “amyloid-reducing activity in vitro” value (Aβ42; in vitro) does the source give for `CC(C)=CCC[C@](C)(O[C@@H]1O[C@H](CO)[C@@H](O)[C@H](O)[C@H]1O)[C@H]1CC[C@]2(C)[C@@H]1[C@H](O)C[C@@H]1[C@@]3(C)CC[C@H](O)C(C)(C)[C@@H]3[C@@H](O[C@@H]3O[C@H](CO)[C@@H](O)[C@H](O)[C@H]3O)C[C@]12C` [Rg1] here?
A: Its value is “no amyloid-reducing activity in vitro”.

Q: For `CC(C)=CC/C=C(\C)[C@H]1CC[C@]2(C)[C@@H]1[C@H](O)C[C@@H]1[C@@]3(C)CC[C@H](O[C@@H]4O[C@H](CO)[C@@H](O)[C@H](O)[C@H]4O[C@@H]4O[C@H](CO)[C@@H](O)[C@H](O)[C@H]4O)C(C)(C)[C@@H]3CC[C@]12C` [Rg5], which “production of Aβ42 in mammalian cells” value (Aβ42; mammalian cells) is on record?
A: Its value is “lower the production of Aβ42 in mammalian cells”.

Q: For `C=C(CCC=C(C)C)[C@H]1CC[C@]2(C)[C@@H]1[C@H](O)C[C@@H]1[C@@]3(C)CC[C@H](O[C@@H]4O[C@H](CO)[C@@H](O)[C@H](O)[C@H]4O[C@@H]4O[C@H](CO)[C@@H](O)[C@H](O)[C@H]4O)C(C)(C)[C@@H]3CC[C@]12C` [Rk1], which “production of Aβ42 in mammalian cells” value (Aβ42; mammalian cells) is on record?
A: Its value is “lower the production of Aβ42 in mammalian cells”.

Q: What about the “relative effectiveness in reducing Aβ42 levels” value (Aβ42; mammalian cells) of the same compound?
A: The value was “most effective in reducing Aβ42 levels”.

Q: What about the “Aβ42 production in cell-free assay” value (γ-secretase complex) of the same compound?
A: The value was “inhibit the Aβ42 production”.

Q: For “tetraacetyl 20-hydroxydammar-24-ene-3-yl-glucopyranoside [Compound D12]”, which “Aβ-lowering activity (levels of secreted Aβ40 and Aβ42, % to control)” value (secreted Aβ40 and Aβ42) is on record?
A: Its value is “exhibited Aβ-lowering activities”.
